# Measurements published in publication PMC5433425 (PeerJ, 2017).
# Peptide text beside a SMILES is read from it. * marks the point of attachment. βNA = c1ccc2cc(N*)ccc2c1
# Assays:
# [1] = tested on: E. coli AG100; experiment: EtBr efflux by real-time fluorometry; conditions: for EtBr fluorescence (Channel Cycling A.530/585hp): 80 µM
# Method: Control tubes with only cells and cells with and without 0.4% glucose were included. The fluorescence was measured in a Rotor-Gene 3000 and the data was acquired every 30 s for 30 min at 37 °C. The efflux activity was quantified by comparing the fluorescence data obtained under conditions that promote efflux (presence of glucose and absence of efflux inhibitor) with the data from the control in which the bacteria are under conditions of no efflux (presence of an inhibitor and no energy source).
# [2] = tested on: E. coli AG100A; experiment: microbe, parasite or virus in culture; type: cell-based, Escherichia coli
# Method: The minimum inhibitory concentrations (MICs) were determined using the broth microdilution method according to the CLSI guidelines ([Clinical and Laboratory Standards Institute, 2014]). […] Two-fold serial dilutions of the compounds were made to achieve the following concentrations: 320 µM–40 µM. The MICs were determined as the lowest concentration at which no visible growth was observed after 18 h of incubation at 37 °C. The assays were performed in triplicate and the MIC value was given as result of at least two concordant values.
structure (smiles),measurement,setting,value
NC(N)=NCCC[C@H](NC(=O)[C@@H](N)Cc1ccccc1)C(=O)Nc1ccc2ccccc2c1 [PAβN] (H-Phe-Arg-βNA),inhibition of EtBr efflux,"[1]; AG100, AG100A and AG100tet (Fig. 2), 80 μM (20 μM for AG100A), glucose, 37 °C",to a lesser extent
same,EtBr fluorescence (Channel Cycling A.530/585hp),"[1]; cycle 1, + glucose",2.175
same,EtBr fluorescence (Channel Cycling A.530/585hp),"[1]; cycle 1, without glucose",1.796
same,EtBr fluorescence (Channel Cycling A.530/585hp),"[1]; cycle 2, + glucose",1.889
same,EtBr fluorescence (Channel Cycling A.530/585hp),"[1]; cycle 2, without glucose",1.72
same,EtBr fluorescence (Channel Cycling A.530/585hp),"[1]; cycle 3, + glucose",1.756
same,EtBr fluorescence (Channel Cycling A.530/585hp),"[1]; cycle 3, without glucose",1.635
same,EtBr fluorescence (Channel Cycling A.530/585hp),"[1]; cycle 4, without glucose",1.556
same,EtBr fluorescence (Channel Cycling A.530/585hp),"[1]; cycle 5, without glucose",1.502
same,EtBr fluorescence (Channel Cycling A.530/585hp),"[1]; cycle 6, without glucose",1.4519
same,EtBr fluorescence (Channel Cycling A.530/585hp),"[1]; cycle 7, without glucose",1.472
same,EtBr fluorescence (Channel Cycling A.530/585hp),"[1]; cycle 8, without glucose",1.378
same,EtBr fluorescence (Channel Cycling A.530/585hp),"[1]; cycle 9, + glucose",1.339
same,EtBr fluorescence (Channel Cycling A.530/585hp),"[1]; cycle 9, without glucose",1.359
same,EtBr fluorescence (Channel Cycling A.530/585hp),"[1]; cycle 10, + glucose",1.264
same,EtBr fluorescence (Channel Cycling A.530/585hp),"[1]; cycle 10, without glucose",1.368
same,EtBr fluorescence (Channel Cycling A.530/585hp),"[1]; cycle 11, + glucose",1.2447
same,EtBr fluorescence (Channel Cycling A.530/585hp),"[1]; cycle 11, without glucose",1.355
same,EtBr fluorescence (Channel Cycling A.530/585hp),"[1]; cycle 12, + glucose",1.251
same,EtBr fluorescence (Channel Cycling A.530/585hp),"[1]; cycle 12, without glucose",1.312
same,EtBr fluorescence (Channel Cycling A.530/585hp),"[1]; cycle 13, + glucose",1.259
same,EtBr fluorescence (Channel Cycling A.530/585hp),"[1]; cycle 13, without glucose",1.3469
same,EtBr fluorescence (Channel Cycling A.530/585hp),"[1]; cycle 14, + glucose",1.222
same,EtBr fluorescence (Channel Cycling A.530/585hp),"[1]; cycle 14, without glucose",1.257
same,EtBr fluorescence (Channel Cycling A.530/585hp),"[1]; cycle 15, + glucose",1.22
same,EtBr fluorescence (Channel Cycling A.530/585hp),"[1]; cycle 15, without glucose",1.235
same,EtBr fluorescence (Channel Cycling A.530/585hp),"[1]; cycle 16, + glucose",1.167
same,EtBr fluorescence (Channel Cycling A.530/585hp),"[1]; cycle 16, without glucose",1.232
same,EtBr fluorescence (Channel Cycling A.530/585hp),"[1]; cycle 17, + glucose",1.194
same,EtBr fluorescence (Channel Cycling A.530/585hp),"[1]; cycle 17, without glucose",1.242
same,EtBr fluorescence (Channel Cycling A.530/585hp),"[1]; cycle 18, + glucose",1.167
same,EtBr fluorescence (Channel Cycling A.530/585hp),"[1]; cycle 18, without glucose",1.283
same,EtBr fluorescence (Channel Cycling A.530/585hp),"[1]; cycle 19, + glucose",1.179
same,EtBr fluorescence (Channel Cycling A.530/585hp),"[1]; cycle 19, without glucose",1.241
same,EtBr fluorescence (Channel Cycling A.530/585hp),"[1]; cycle 20, + glucose",1.201
same,EtBr fluorescence (Channel Cycling A.530/585hp),"[1]; cycle 20, without glucose",1.199
same,EtBr fluorescence (Channel Cycling A.530/585hp),"[1]; cycle 21, + glucose",1.201
same,EtBr fluorescence (Channel Cycling A.530/585hp),"[1]; cycle 21, without glucose",1.185
same,EtBr fluorescence (Channel Cycling A.530/585hp),"[1]; cycle 22, + glucose",1.145
same,EtBr fluorescence (Channel Cycling A.530/585hp),"[1]; cycle 22, without glucose",1.19
same,EtBr fluorescence (Channel Cycling A.530/585hp),"[1]; cycle 23, + glucose",1.181
same,EtBr fluorescence (Channel Cycling A.530/585hp),"[1]; cycle 23, without glucose",1.1696
same,EtBr fluorescence (Channel Cycling A.530/585hp),"[1]; cycle 24, + glucose",1.1726
same,EtBr fluorescence (Channel Cycling A.530/585hp),"[1]; cycle 24, without glucose",1.092
same,EtBr fluorescence (Channel Cycling A.530/585hp),"[1]; cycle 25, + glucose",1.158
same,EtBr fluorescence (Channel Cycling A.530/585hp),"[1]; cycle 25, without glucose",1.1723
same,EtBr fluorescence (Channel Cycling A.530/585hp),"[1]; cycle 26, + glucose",1.17
same,EtBr fluorescence (Channel Cycling A.530/585hp),"[1]; cycle 26, without glucose",1.164
same,EtBr fluorescence (Channel Cycling A.530/585hp),"[1]; cycle 27, + glucose",1.169
same,EtBr fluorescence (Channel Cycling A.530/585hp),"[1]; cycle 27, without glucose",1.126
same,EtBr fluorescence (Channel Cycling A.530/585hp),"[1]; cycle 28, + glucose",1.177
same,EtBr fluorescence (Channel Cycling A.530/585hp),"[1]; cycle 28, without glucose",1.147
same,EtBr fluorescence (Channel Cycling A.530/585hp),"[1]; cycle 29, + glucose",1.1781
same,EtBr fluorescence (Channel Cycling A.530/585hp),"[1]; cycle 29, without glucose",1.123
same,EtBr fluorescence (Channel Cycling A.530/585hp),"[1]; cycle 30, + glucose",1.125
same,EtBr fluorescence (Channel Cycling A.530/585hp),"[1]; cycle 30, without glucose",1.105
same,EtBr fluorescence (Channel Cycling A.530/585hp),"[1]; cycle 31, + glucose",1.166
same,EtBr fluorescence (Channel Cycling A.530/585hp),"[1]; cycle 31, without glucose",1.145
same,EtBr fluorescence (Channel Cycling A.530/585hp),"[1]; cycle 32, + glucose",1.148
same,EtBr fluorescence (Channel Cycling A.530/585hp),"[1]; cycle 32, without glucose",1.083
same,EtBr fluorescence (Channel Cycling A.530/585hp),"[1]; cycle 33, + glucose",1.1593
same,EtBr fluorescence (Channel Cycling A.530/585hp),"[1]; cycle 33, without glucose",1.053
same,EtBr fluorescence (Channel Cycling A.530/585hp),"[1]; cycle 34, + glucose",1.173
same,EtBr fluorescence (Channel Cycling A.530/585hp),"[1]; cycle 34, without glucose",1.055
same,EtBr fluorescence (Channel Cycling A.530/585hp),"[1]; cycle 35, + glucose",1.1603
same,EtBr fluorescence (Channel Cycling A.530/585hp),"[1]; cycle 35, without glucose",1.086
same,EtBr fluorescence (Channel Cycling A.530/585hp),"[1]; cycle 36, + glucose",1.157
same,EtBr fluorescence (Channel Cycling A.530/585hp),"[1]; cycle 36, without glucose",1.095
same,EtBr fluorescence (Channel Cycling A.530/585hp),"[1]; cycle 37, + glucose",1.1393
same,EtBr fluorescence (Channel Cycling A.530/585hp),"[1]; cycle 37, without glucose",1.081
same,EtBr fluorescence (Channel Cycling A.530/585hp),"[1]; cycle 38, + glucose",1.174
same,EtBr fluorescence (Channel Cycling A.530/585hp),"[1]; cycle 38, without glucose",1.066
same,EtBr fluorescence (Channel Cycling A.530/585hp),"[1]; cycle 39, + glucose",1.096
same,EtBr fluorescence (Channel Cycling A.530/585hp),"[1]; cycle 39, without glucose",1.058
same,EtBr fluorescence (Channel Cycling A.530/585hp),"[1]; cycle 40, + glucose",1.115
same,EtBr fluorescence (Channel Cycling A.530/585hp),"[1]; cycle 40, without glucose",1.043
same,EtBr fluorescence (Channel Cycling A.530/585hp),"[1]; cycle 41, + glucose",1.134
same,EtBr fluorescence (Channel Cycling A.530/585hp),"[1]; cycle 41, without glucose",1.067
same,EtBr fluorescence (Channel Cycling A.530/585hp),"[1]; cycle 42, + glucose",1.162
same,EtBr fluorescence (Channel Cycling A.530/585hp),"[1]; cycle 42, without glucose",1.058
same,EtBr fluorescence (Channel Cycling A.530/585hp),"[1]; cycle 43, + glucose",1.125
same,EtBr fluorescence (Channel Cycling A.530/585hp),"[1]; cycle 43, without glucose",1.031
same,EtBr fluorescence (Channel Cycling A.530/585hp),"[1]; cycle 44, + glucose",1.108
same,EtBr fluorescence (Channel Cycling A.530/585hp),"[1]; cycle 44, without glucose",1.002
same,EtBr fluorescence (Channel Cycling A.530/585hp),"[1]; cycle 45, without glucose",0.9943
same,EtBr fluorescence (Channel Cycling A.530/585hp),"[1]; cycle 46, without glucose",1.025
same,EtBr fluorescence (Channel Cycling A.530/585hp),"[1]; cycle 47, without glucose",1.03
same,EtBr fluorescence (Channel Cycling A.530/585hp),"[1]; cycle 48, without glucose",1.056
same,EtBr fluorescence (Channel Cycling A.530/585hp),"[1]; cycle 49, without glucose",1.07
same,EtBr fluorescence (Channel Cycling A.530/585hp),"[1]; cycle 50, without glucose",1.062
same,EtBr fluorescence (Channel Cycling A.530/585hp),"[1]; cycle 51, without glucose",1.026
same,EtBr fluorescence (Channel Cycling A.530/585hp),"[1]; cycle 52, without glucose",1.029
same,EtBr fluorescence (Channel Cycling A.530/585hp),"[1]; cycle 53, without glucose",1.04
same,EtBr fluorescence (Channel Cycling A.530/585hp),"[1]; cycle 54, without glucose",1.019
same,EtBr fluorescence (Channel Cycling A.530/585hp),"[1]; cycle 55, without glucose",0.9589
same,EtBr fluorescence (Channel Cycling A.530/585hp),"[1]; cycle 56, without glucose",0.9927
same,EtBr fluorescence (Channel Cycling A.530/585hp),"[1]; cycle 57, without glucose",1.017
same,EtBr fluorescence (Channel Cycling A.530/585hp),"[1]; cycle 58, without glucose",0.9905
same,EtBr fluorescence (Channel Cycling A.530/585hp),"[1]; cycle 59, without glucose",1.041
same,EtBr fluorescence (Channel Cycling A.530/585hp),"[1]; cycle 60, without glucose",1.02
same,EtBr fluorescence (Channel Cycling A.530/585hp),"[1]; cycle 61, without glucose",1.0374
same,effect on OFX and EtBr MICs,[2]; AG100A (pump-deficient strain),no effect
same,reduction in OXA MIC,[2]; AG100A (pump-deficient strain),4 fold
same,reduction in TET MIC,[2]; AG100A (pump-deficient strain),16 fold
same,MIC,"[2]; Escherichia coli, AG100A, read-out: MIC of EtBr in presence of the efflux inhibitor",3.12 µg/mL
